Source: patent US8067042B1 (Mutual Pharmaceutical Company, Inc., priority 2007, dated 2011)
Several values for one entry are separate records, joined by “and”; a condition that tells them apart may be missing. Equal entries are not always repeated. Where two headings read alike, the source gives them in different places.

Experiments:
CYP2C8 [1] = target: T1, CYP2C8 (Homo sapiens, UniProt P10632); conditions: 60 min, 100 μM, pH 7.4
T1 sequence (P10632 1-490): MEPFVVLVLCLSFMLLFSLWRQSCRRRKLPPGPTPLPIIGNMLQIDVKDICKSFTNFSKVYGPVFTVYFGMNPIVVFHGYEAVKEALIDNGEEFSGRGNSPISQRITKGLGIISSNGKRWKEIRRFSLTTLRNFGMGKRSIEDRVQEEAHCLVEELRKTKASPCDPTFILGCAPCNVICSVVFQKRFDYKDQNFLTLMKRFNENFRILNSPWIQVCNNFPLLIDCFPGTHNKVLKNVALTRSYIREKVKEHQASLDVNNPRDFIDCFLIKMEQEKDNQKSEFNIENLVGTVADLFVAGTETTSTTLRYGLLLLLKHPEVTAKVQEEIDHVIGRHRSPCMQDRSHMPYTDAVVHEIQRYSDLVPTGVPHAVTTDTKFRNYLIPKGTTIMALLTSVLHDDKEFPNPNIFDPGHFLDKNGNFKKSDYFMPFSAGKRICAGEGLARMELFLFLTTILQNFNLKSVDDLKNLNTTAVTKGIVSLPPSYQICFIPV
Experimental: After a 5-minute pre-incubation, NRS was added to the incubation mixtures to initiate reactions. The final incubation volume was 0.5 mL. Incubations were continued for 60 minutes. […] In these experiments, each CYP isoform-selective substrate was prepared as 100× stock solutions in the solvent listed below.
Incubation reactions for positive controls were terminated by adding 0.5 mL methanol, except for paclitaxel (CYP2C8) which was terminated by adding 0.75 mL of acetonitrile.
Specific activity for each CYP isoform was calculated based on the formation of metabolite from each CYP isoform-selective substrate.

CYP2A6 [2] = target: T2, CYP2A6 (Homo sapiens, UniProt P11509); conditions: 10 μM Tranylcypromine
T2 sequence (P11509 1-494): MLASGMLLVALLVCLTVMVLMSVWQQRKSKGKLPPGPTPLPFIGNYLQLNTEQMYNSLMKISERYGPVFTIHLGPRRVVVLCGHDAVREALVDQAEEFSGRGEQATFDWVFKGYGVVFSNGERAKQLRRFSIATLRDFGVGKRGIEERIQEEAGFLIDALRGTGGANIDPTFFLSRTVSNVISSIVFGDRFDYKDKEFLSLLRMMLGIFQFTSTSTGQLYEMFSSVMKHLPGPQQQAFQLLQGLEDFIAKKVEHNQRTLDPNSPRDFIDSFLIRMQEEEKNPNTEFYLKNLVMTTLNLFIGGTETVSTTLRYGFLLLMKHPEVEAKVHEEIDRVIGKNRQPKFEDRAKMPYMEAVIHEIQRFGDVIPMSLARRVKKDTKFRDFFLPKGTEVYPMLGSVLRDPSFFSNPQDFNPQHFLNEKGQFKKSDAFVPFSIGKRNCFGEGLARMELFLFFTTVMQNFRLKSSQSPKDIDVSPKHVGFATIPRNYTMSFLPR

CYP1A2 = target: T3, CYP1A2 (Homo sapiens, UniProt P05177); conditions: 60 min, 5 μM, pH 7.4
T3 sequence (P05177 1-516): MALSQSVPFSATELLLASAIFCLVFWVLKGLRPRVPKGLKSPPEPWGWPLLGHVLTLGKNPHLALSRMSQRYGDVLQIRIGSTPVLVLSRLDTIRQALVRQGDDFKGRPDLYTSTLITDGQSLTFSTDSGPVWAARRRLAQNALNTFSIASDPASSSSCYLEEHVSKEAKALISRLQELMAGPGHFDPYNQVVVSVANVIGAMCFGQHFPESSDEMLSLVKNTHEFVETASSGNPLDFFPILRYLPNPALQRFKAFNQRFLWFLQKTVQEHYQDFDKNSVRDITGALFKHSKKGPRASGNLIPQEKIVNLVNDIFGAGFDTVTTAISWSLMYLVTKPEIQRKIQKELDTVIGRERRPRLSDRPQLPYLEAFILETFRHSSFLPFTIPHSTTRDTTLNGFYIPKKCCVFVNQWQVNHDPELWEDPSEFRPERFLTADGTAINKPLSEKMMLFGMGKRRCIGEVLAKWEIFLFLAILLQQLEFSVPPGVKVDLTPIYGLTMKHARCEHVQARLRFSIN

CYP2C8 [3] = format: in vitro ADME; conditions: 50 μM megestrol acetate (Parent)
CYP2E1 [4] = format: in vitro ADME; conditions: 50 μM megestrol acetate (Parent)
CYP2A6 [5] = conditions: 50 μM megestrol acetate (Parent), 0.5 mg/mL pooled human liver microsomes with 1% water (no inhibitor)
CYP2B6 [6] = target: T4, CYP2B6 (Homo sapiens, UniProt P20813); conditions: 50 μM megestrol acetate (Parent), 0.5 mg/mL pooled human liver microsomes with 1% methanol (no inhibitor)
T4 sequence (P20813 1-491): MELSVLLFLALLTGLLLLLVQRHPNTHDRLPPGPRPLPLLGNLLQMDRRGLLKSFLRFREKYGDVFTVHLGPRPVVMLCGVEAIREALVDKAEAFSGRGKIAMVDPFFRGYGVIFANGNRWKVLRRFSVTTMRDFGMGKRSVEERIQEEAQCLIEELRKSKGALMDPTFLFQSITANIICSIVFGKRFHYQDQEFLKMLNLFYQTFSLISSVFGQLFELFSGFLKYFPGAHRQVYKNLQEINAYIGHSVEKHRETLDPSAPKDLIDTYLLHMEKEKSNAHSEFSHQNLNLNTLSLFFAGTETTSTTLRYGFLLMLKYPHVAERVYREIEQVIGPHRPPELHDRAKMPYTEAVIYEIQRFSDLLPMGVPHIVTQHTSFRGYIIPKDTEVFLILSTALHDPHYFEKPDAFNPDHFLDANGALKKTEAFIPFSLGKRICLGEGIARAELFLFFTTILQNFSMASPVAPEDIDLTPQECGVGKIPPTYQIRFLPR

CYP2A6 [7] = target: T2, CYP2A6; format: in vitro ADME; parameters: purchased BD Biosciences Discovery Labware, Woburn, Mass; host or cells: baculovirus-infected insect cells; conditions: LC/MS; 50 μM megestrol acetate (Parent), 20 pmol Human CYP2A6 + P450 Reductase + Cytochrome b5 SUPERSOMES
CYP2B6 [8] = target: T4, CYP2B6; format: in vitro ADME; parameters: purchased BD Biosciences Discovery Labware, Woburn, Mass; host or cells: baculovirus-infected insect cells; conditions: LC/MS; 50 μM megestrol acetate (Parent), 20 pmol Human CYP2B6 + P450 Reductase + Cytochrome b5 SUPERSOMES
CYP2C8 [9] = target: T1, CYP2C8; format: in vitro ADME; parameters: purchased BD Biosciences Discovery Labware, Woburn, Mass; host or cells: baculovirus-infected insect cells; conditions: LC/MS; 50 μM megestrol acetate (Parent), 20 pmol Human CYP2C8 + P450 Reductase + Cytochrome b5 SUPERSOMES
CYP2E1 [10] = target: T5, CYP2E1 (Homo sapiens, UniProt P05181); format: in vitro ADME; parameters: purchased BD Biosciences Discovery Labware, Woburn, Mass; host or cells: baculovirus-infected insect cells; conditions: LC/MS; 50 μM megestrol acetate (Parent), 20 pmol Human CYP2E1 + P450 Reductase + Cytochrome b5 SUPERSOMES
T5 sequence (P05181 whole entry): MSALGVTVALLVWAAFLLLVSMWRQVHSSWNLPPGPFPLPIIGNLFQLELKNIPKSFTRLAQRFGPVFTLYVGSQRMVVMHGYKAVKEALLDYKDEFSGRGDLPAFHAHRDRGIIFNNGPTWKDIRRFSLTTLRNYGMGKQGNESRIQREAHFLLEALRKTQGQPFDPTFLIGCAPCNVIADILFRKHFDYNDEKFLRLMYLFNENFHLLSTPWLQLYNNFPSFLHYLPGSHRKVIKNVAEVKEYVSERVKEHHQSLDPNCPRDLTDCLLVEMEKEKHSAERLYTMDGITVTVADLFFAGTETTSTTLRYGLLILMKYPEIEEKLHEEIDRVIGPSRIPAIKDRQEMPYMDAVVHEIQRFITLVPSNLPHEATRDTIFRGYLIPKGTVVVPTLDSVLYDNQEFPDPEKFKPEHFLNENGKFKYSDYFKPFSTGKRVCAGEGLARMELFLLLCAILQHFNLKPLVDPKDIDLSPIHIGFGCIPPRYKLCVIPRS

CYP2E1 [11] = target: T5, CYP2E1; conditions: 60 min, 100 μM, pH 7.4
[12] = 0.5 mg/mL pooled human liver microsomes with 100 μM Quercetin
[13] = 0.5 mg/mL pooled human liver microsomes with 0.1% DMSO (no inhibitor)
[14] = 0.5 mg/mL pooled human liver microsomes with 100 μM Diethyldithiocarbamate
[15] = 0.5 mg/mL pooled human liver microsomes with 1% water (no inhibitor)

`O=c1c(O)c(-c2ccc(O)c(O)c2)oc2cc(O)cc(O)c12` [Quercetin] was tested, and the “Specific Activity Mean ± SD” value (CYP2C8 [1]) was 2.64 ± 0.250 pmol metabolite/min/pmol protein and the “CYP2C8 activity in presence of inhibitor” value (CYP2C8 [1]; microsomes) was 2.64±0.250 pmol metabolite/minute/mg protein.

`N[C@@H]1C[C@H]1c1ccccc1` (racemic) [Tranylcypromine] was tested, and the “CYP2A6 activity in presence of inhibitor” value (CYP2A6 [2]) was 18.7±0.597 pmol metabolite/minute/mg protein, the “Metabolite Formation Adjusted Individual” value (CYP2A6 [2]) was 0.582 µM and 0.548 µM and 0.556 µM and the “Metabolite Formation Adjusted Mean ± SD” value (CYP2A6 [2]) was 0.562 ± 0.0179 µM. The “Metabolite Formation Raw” value (CYP2A6 [2]) was 0.582 µM and 0.5477 µM and 0.5561 µM, the “Specific Activity Individual” value (CYP2A6 [2]) was 19.4 pmol metabolite/min/pmol protein and 18.3 pmol metabolite/min/pmol protein and 18.5 pmol metabolite/min/pmol protein and the “Specific Activity Mean ± SD” value (CYP2A6 [2]) was 18.7 ± 0.597 pmol metabolite/min/pmol protein.

For `Cc1nc2c([nH]1)c(=O)n(C)c(=O)n2Cc1ccco1` [Furafylline], the “Metabolite Formation Adjusted Mean ± SD” value (CYP1A2) was 0.593 ± 0.0333 µM.

For `CC(=O)O[C@]1(C(C)=O)CC[C@H]2[C@@H]3C=C(C)C4=CC(=O)CC[C@]4(C)[C@H]3CC[C@@]21C` [Parent], the Area % (CYP2C8 [3]; [12]) was 99.11%, the “Peak Area” value (CYP2C8 [3]; [12]) was 5734.70 and the Area % (CYP2C8 [3]; [13]) was 69.53%. For the same compound, the “Peak Area” value (CYP2C8 [3]; [13]) was 4151.30, the Area % (CYP2E1 [4]; [14]) was 90.95% and the “Peak Area” value (CYP2E1 [4]; [14]) was 5225.10. The Area % (CYP2E1 [4]; [15]) was 59.79%, the “Peak Area” value (CYP2E1 [4]; [15]) was 3520.60 and the Area % (CYP2A6 [5]) was 59.79%. For the same compound, the “Peak Area” value (CYP2A6 [5]) was 2932.40, the Area % (CYP2B6 [6]) was 63.45% and the “Peak Area” value (CYP2B6 [6]) was 2924.70. For the same compound, the Area % (CYP2A6 [7]) was 100.00%, the “Peak Area” value (CYP2A6 [7]) was 7120.60 and the Area % (CYP2B6 [8]) was 98.77%. The “Peak Area” value (CYP2B6 [8]) was 7320.20, the Area % (CYP2C8 [9]) was 99.28% and the “Peak Area” value (CYP2C8 [9]) was 7474.90. For the same compound, the Area % (CYP2E1 [10]) was 100.00% and the “Peak Area” value (CYP2E1 [10]) was 7274.10.

`CCN(CC)C(=S)S` [DDC, Diethyldithiocarbamate] was tested, and the “Metabolite Formation Adjusted Mean ± SD” value (CYP2E1 [11]) was 1.77 ± 0.0341 µM, the “Specific Activity Mean ± SD” value (CYP2E1 [11]) was 58.9 ± 1.14 pmol metabolite/min/pmol protein and the “CYP2E1 activity in presence of inhibitor” value (CYP2E1 [11]; microsomes) was 58.9±1.14 pmol metabolite/minute/mg protein.
